Measurements reported in US12433903B2 (priority 2021, dated 2025).

Columns and labels:
[1] = PK study after oral (PO) or intraperitoneal (IP) administration; assay type: in vivo, male Sprague Dawley rats; details: CBG 30 mg/kg PO or IP; Compound 1 31.5 mg/kg PO; Compound 2 32.7 mg/kg PO
Method: This study evaluated the pharmacokinetics of (E)-2-(3,7-dimethylocta-2,6-dien-1-yl)-3-methoxy-5-pentylphenol (1) and (E)-2-(3,7-dimethylocta-2,6-dien-1-yl)-1,3-dimethoxy-5-pentylbenzene (2) following oral (PO) or intraperitoneal (IP) administration to male Sprague Dawley rats.
For the oral formulation the test article was added to the appropriate amount of Maisine and stirred until uniform. Next Labrasol was added to the formulation and allowed to stir until uniform. Finally, water will be slowly added to the stirring formulation to achieve the final volume.
For the IP formulation the test article was added to the appropriate amount of ethanol and stirred until uniform. Next, the appropriate amount of tween-20 was added to the stirred formulation. Finally, the appropriate amount of saline was slowly added to the stirred formulation to achieve the final volume.
Animals were fasted the evening prior to dosing with food returned at 4 h postdose, and the animals weighed on the morning of dose administration.
IP doses were administered via injection to the intraperitoneal region. PO doses were delivered into the stomach via syringe and gavage tube.
Blood was collected from via direct jugular stick or from the tail vein. Blood samples were kept on ice until being centrifuged at 3200 RPM for 10 minutes at ˜5° C. within 1 h of collection. Plasma was split into 2 cryovials in approximately equal volumes (0.05 mLs) and stored at −20° C.±5° C. until shipment.

[2] = biological target: T1, rUGT1A9 (Homo sapiens, UniProt O60656); experiment: Inhibition of CBG glucuronidation by Compound 1, rUGT1A9; assay type: in vitro ADME; details: for CBG detected (CBG loss) / CBG detected, Percent of control / CBG glucuronide formed / CBG glucuronide formed, Percent of control: 4 min
T1 sequence (O60656 26-530): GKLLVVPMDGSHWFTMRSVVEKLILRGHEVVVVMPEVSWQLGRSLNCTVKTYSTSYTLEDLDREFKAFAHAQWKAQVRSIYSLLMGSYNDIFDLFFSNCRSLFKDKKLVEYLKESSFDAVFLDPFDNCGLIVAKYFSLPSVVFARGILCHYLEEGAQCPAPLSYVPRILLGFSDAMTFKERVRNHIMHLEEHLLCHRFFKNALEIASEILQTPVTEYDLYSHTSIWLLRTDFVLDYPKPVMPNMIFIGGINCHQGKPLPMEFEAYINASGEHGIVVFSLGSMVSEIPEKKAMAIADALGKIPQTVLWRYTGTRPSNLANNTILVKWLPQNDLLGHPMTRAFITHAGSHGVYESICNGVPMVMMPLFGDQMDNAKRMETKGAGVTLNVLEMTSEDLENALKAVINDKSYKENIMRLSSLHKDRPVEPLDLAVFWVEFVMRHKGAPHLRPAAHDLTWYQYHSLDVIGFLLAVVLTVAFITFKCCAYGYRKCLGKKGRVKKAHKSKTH
Method: The purpose of this experiment was to determine if Compound 1 can inhibit the glucuronidation of CBG, as both are substrates for the two major isoforms responsible for CBG glucuronidation.
The ability of Compound 1 to inhibit the metabolism of CBG by UGT1A9 and UGT2B7 enzymes was investigated to ascertain the IC50 values for direct inhibition. The incubation conditions (substrate concentration, incubation time and protein concentration) were determined in Part 2 of the protocol such that CBG metabolism remains near initial rate conditions (e.g., 20-30% substrate loss).
Preliminary experiments were conducted in Part I of the protocol, first to establish the HPLC/MS/MS bioanalytical methods for CBG and CBG glucuronide. […] The second set of preliminary experiments (Part 2), as mentioned, were conducted to optimize the incubation conditions as described above. Incubations (at 37° C.) contained Tris-HCl buffer (100 mM, pH 7.7), MgCl2 (10 mM), EDTA (1 mM, pH 7.4) and UDP-glucuronic acid (UDPGA, 10 mM). CBG was added to each incubation in DMSO such that the final percent of DMSO was 1% v/v, or less. Reactions were terminated by the addition of an equal volume of stop reagent, acetonitrile containing an internal standard. The samples were centrifuged (e.g., 920 RCF for 10 minutes at 10° C.), and the supernatant fractions were analyzed by LC-MS/MS to determine the amount of CBG remaining and formation of one metabolite (CBG glucuronide).
To examine its ability to act as a direct inhibitor of the above listed enzymes, Compound 1 was be added to recombinant human UGT enzyme together with CBG. Reactions were initiated with UDPGA and were carried out in duplicate. For all assays, reactions were terminated by the addition of acetonitrile with or without 2% v/v formic acid, including the internal standard.
Authentic metabolite reference standards were used for quantitation of the probe substrate metabolites and as internal standards. Based on the information obtained in the Part 2 experiments, the following table summarizes the experiments performed, assessing the inhibitory effects of Compound 1 was conducted as follows:
The amounts of CBG present at the end of the incubation periods was determined. For inhibition to have occurred, the amounts of CBG present at the end of the incubation period needed to increase, and the amounts of glucuronide formed needed to decrease.

CCCCCc1cc(O)c(C/C=C(\C)CCC=C(C)C)c(O)c1 [CBG, cannabigerol]
glucuronidation / glucuronide formation in plasma (in words) [1]: converted by glucuronidation to CBG-glucoronide

CCCCCc1cc(O)c(C/C=C(\C)CCC=C(C)C)c(OC)c1 [Compound 1, (E)-2-(3,7-dimethylocta-2,6-dien-1-yl)-3-methoxy-5-pentylphenol]
CBG detected (CBG loss) ([2]; 10 μM CBG + 0.01 μM Compound 1): 1250 pmol | CBG detected, Percent of control ([2]; 10 μM CBG + 0.01 μM Compound 1): 109 | CBG glucuronide formed ([2]; 10 μM CBG + 0.01 μM Compound 1): 350000 area ratio | CBG glucuronide formed, Percent of control ([2]; 10 μM CBG + 0.01 μM Compound 1): 94.4 | CBG detected (CBG loss) ([2]; 10 μM CBG + 0.03 μM Compound 1): 1250 pmol | CBG detected, Percent of control ([2]; 10 μM CBG + 0.03 μM Compound 1): 110 | CBG glucuronide formed ([2]; 10 μM CBG + 0.03 μM Compound 1): 360000 area ratio | CBG glucuronide formed, Percent of control ([2]; 10 μM CBG + 0.03 μM Compound 1): 97.1 | CBG detected (CBG loss) ([2]; 10 μM CBG + 0.1 μM Compound 1): 1280 pmol | CBG detected, Percent of control ([2]; 10 μM CBG + 0.1 μM Compound 1): 112 | CBG glucuronide formed, Percent of control ([2]; 10 μM CBG + 0.1 μM Compound 1): 92.0 | CBG detected (CBG loss) ([2]; 10 μM CBG + 0.3 μM Compound 1): 1300 pmol | CBG detected, Percent of control ([2]; 10 μM CBG + 0.3 μM Compound 1): 114 | CBG glucuronide formed ([2]; 10 μM CBG + 0.3 μM Compound 1): 350000 area ratio | CBG glucuronide formed, Percent of control ([2]; 10 μM CBG + 0.3 μM Compound 1): 94.4 | CBG detected (CBG loss) ([2]; 10 μM CBG + 1 μM Compound 1): 1210 pmol | CBG detected, Percent of control ([2]; 10 μM CBG + 1 μM Compound 1): 106 | CBG glucuronide formed, Percent of control ([2]; 10 μM CBG + 1 μM Compound 1): 92.6 | CBG detected (CBG loss) ([2]; 10 μM CBG + 3 μM Compound 1): 1200 pmol | CBG detected, Percent of control ([2]; 10 μM CBG + 3 μM Compound 1): 105 | CBG glucuronide formed, Percent of control ([2]; 10 μM CBG + 3 μM Compound 1): 93.6 | CBG detected (CBG loss) ([2]; 10 μM CBG + 10 μM Compound 1): 1140 pmol | CBG detected, Percent of control ([2]; 10 μM CBG + 10 μM Compound 1): 99.8 | CBG glucuronide formed, Percent of control ([2]; 10 μM CBG + 10 μM Compound 1): 92.8 | metabolism of CBG in the presence of Compound 1 (in words) ([2]; 0.01-10 μM Compound 1, CBG disappearance or glucuronide formation): essentially unchanged | glucuronidation / glucuronide formation in plasma (in words) [1]: significantly reduced levels of glucuronidation compared to CBG
